In patent US20060288450A1, “Plant N-acylethanolamine binding proteins” (Samuel Roberts Noble Foundation, priority 2004, published 2006):

Tests used:
[1] = tested on: membrane-associated NAE-binding activities; conditions: cited from earlier work; for challenge of [3H]NAE 14:0 binding by CB receptor antagonist: plant membranes
[2] = tested on: NAE binding protein (At1g26440); assay: [3H]NAE 14:0 radioligand binding to recombinant At1g26440 protein expressed in E. coli; parameters: species or system Arabidopsis thaliana
Protocol: FIG. 4 Full length cDNAs synthesized through RT-PCR on Arabidopsis total RNA using gene specific primers to At1g26440 were cloned into pTrc His2 expression vector and the recombinant protein over expressed in E. coli Top10 competent cells (Invitrogen, Cat. No. K4400-01 and K4400-40). Positive clones selected on amp-glucose agar plates were analyzed for producing NAE 14:0 binding protein by using [^3H]NAE 14:0 binding assay (Tripathy et al., 2003). Bacterial lysate (L) prepared from pelleted positive clones induced with IPTG for recombinant protein production was used as the protein source. T10-1, T-10-2, T10-3: Positive clones carrying A. thaliana NAE-binding protein (At1g26440); T10-4: Negative clone carrying the gene sequence in reverse orientation; T10-0: Control Top10 cells. Binding assay was performed on cell lysate (L) and the affinity purified (ProBond purification system, Invitrogen) recombinant protein (P) fraction. Histograms represent binding activity (from two studies with four replicates each).
FIG. 5 Saturation binding of [^3H]NAE 14:0 to a candidate NAE binding protein (At1g26440) expressed in E. coli Top10 cell lysate. The candidate NAE binding protein was a full-length, in-frame cDNA. […]
(§1) [^3H]NAE 14:0 radioligand was synthesized from [9,10-^3H(N)]myristic acid (PerkinElmer Life Sciences, Boston) in a modified two step reaction (Hillard et al., 1995; Devane et al., 1992). […] The [^3H]NAE 14:0 formed was further purified and quantified by separating on thin layer chromatography (TLC) and radiometric scanning respectively (Tripathy et al., 2003).
Binding activity of [^3H]NAE 14:0 was carried out with DDM-solubilized microsomes from Arabidopsis (ecotype, columbia) leaves (Tripathy et al., 2003b) or recombinant protein produced in E. coli and solubilized in DDM. […] Unbound ligands were washed off with ice cold binding buffer (75 mM potassium-phosphate buffer, pH 7.2, 300 mM sucrose, 7.5 mM KCl, 0.75 mM EDTA, 0.75 mM EGTA, 0.5 mM ascorbate, 5 mM DTT, and 1.5% BSA) under vacuum and frozen filters were excised into scintillation cocktail for radioactivity estimation.

[3] = tested on: Arabidopsis microsomal protein; assay: [3H]NAE 14:0 radioligand binding to Arabidopsis leaf microsomes; parameters: species or system Arabidopsis thaliana; conditions: 5 nM SR144528, [3H]NAE 14:0 50 nM
Protocol: FIG. 1. Analysis of specific binding of [^3H]NAE 14:0 to DDM solubilized (0.2 mM) microsomes (25 μg of protein) isolated from A. thaliana (ecotype Columbia) leaves (150,000×g) with a concentration ranging from 10 to 80 nM. Specific binding was determined by subtracting nonspecific binding (binding in the presence of 1,500× nonradioactive NAE 14:0) values from total radioligand binding values in duplicate assays. Binding affinity and Bmax of [^3H]NAE 14:0 was estimated by fitting the saturation binding data to nonlinear regression analysis for a one-site binding equation using Prism 3.0, Graphpad software, San Diego.
FIG. 7 Microsomes from A. thaliana leaves and affinity purified (P) protein from T10-1 cell lysate were incubated with [^3H]NAE 14:0 (50 nM) in the presence and absence of CB receptor antagonist SR144528 (5 nM) to compare the influence on [3H]NAE binding. Values represent means of triplicate assays from an individual experiment reproduced twice.
as §1, with “1992). In step one, acylchloride is prepared from [3 H]” for “1992).”, “2003). […]” for “2003).”

[4] = tested on: defense gene (Phenylalanine-ammonia lyase) expression; conditions: coadministration, leaves; cited from earlier work

Compound | challenge of [3H]NAE 14:0 binding by CB receptor antagonist [1] | affinity of recombinant protein for NAE 14:0 (saturation binding) ([2]; recombinant At1g26440 expressed in E. coli, DDM solubilized) | binding activity of [3H]NAE 14:0 (affinity) ([1]; membrane-associated, saturable, in lower nanomolar range) | effect on NAE14:0 binding ([2]; 5 nM SR144528, [3H]NAE 14:0 50 nM, recombinant At1g26440 gene product) | effect on NAE specific binding ([2]; higher concentrations of SR144528 (above 5 nM), preparation not specified) | effect on NAE14:0 binding [3] | effect on NAE-regulated defense gene expression [4]
Cc1c(C(=O)NN2CCOCC2)nn(-c2ccc(Cl)cc2Cl)c1-c1ccc(I)cc1 [AM 281] | potently challenged |  |  |  |  |  | 
CCCCCCCCCCCCCC(=O)NCCO [NAE 14:0] |  | high affinity | high affinity |  |  |  | 
SR144528 | potently challenged |  |  | diminished | eliminated | diminished | blocked
